Measured values as given in ChEMBL document CHEMBL3885881, “DrugMatrix”.

Organism: Rattus norvegicus
Assay: DrugMatrix - Regimen: Daily Repeat
Type: toxicity, organism-based, Sprague-Dawley
Set-up: regimen Daily Repeat, gender Male, age 6-8 weeks
Conditions: in vivo, po, […], route oral GAVAGE, dose 1.2 mg/Kg, dose level Low; for ABSOLUTE BASOPHIL / ABSOLUTE EOSINOPHIL / ABSOLUTE LYMPHOCYTE / ABSOLUTE MONOCYTE / ABSOLUTE SEGMENTED NEUTROPHIL / BASOPHIL / EOSINOPHIL / ERYTHROCYTE COUNT / HEMATOCRIT / HEMOGLOBIN / LEUKOCYTE COUNT / LYMPHOCYTE / MEAN CORPUSCULAR HEMOGLOBIN / MEAN CORPUSCULAR HEMOGLOBIN CONCENTRATION / MEAN CORPUSCULAR VOLUME / MONOCYTE / NEUTROPHIL / NUCLEATED RED BLOOD CELLS / PLATELET COUNT: tissue Blood; for ALANINE AMINOTRANSFERASE / ALBUMIN / ALKALINE PHOSPHATASE / ASPARTATE AMINOTRANSFERASE / BLOOD UREA NITROGEN / CARBON DIOXIDE / CHLORIDE / CHOLESTEROL / CREATINE PHOSPHOKINASE / CREATININE / GLUCOSE / LACTATE DEHYDROGENASE / LIPASE / PHOSPHORUS / POTASSIUM / SODIUM / TOTAL BILIRUBIN / TOTAL PROTEIN / URIC ACID: tissue Plasma

## CNC(=C[N+](=O)[O-])NCCSCc1csc(CN(C)C)n1 [NIZATIDINE]
72 h, time 3 day
  ABSOLUTE BASOPHIL: 0 CELLS/uL
  ABSOLUTE EOSINOPHIL: 34 CELLS/uL
  ABSOLUTE LYMPHOCYTE: 10569 CELLS/uL
  ABSOLUTE MONOCYTE: 72 CELLS/uL
  ABSOLUTE SEGMENTED NEUTROPHIL: 2425 CELLS/uL
  BASOPHIL: 0%
  EOSINOPHIL: 0.33%
  ERYTHROCYTE COUNT: 5.9 x10E6/uL
  HEMATOCRIT: 35.07%
  HEMOGLOBIN: 13.63 G/DL
  LEUKOCYTE COUNT: 13.1 x10E3/uL
  LYMPHOCYTE: 80.33%
  MEAN CORPUSCULAR HEMOGLOBIN: 23.13 pg
  MEAN CORPUSCULAR HEMOGLOBIN CONCENTRATION: 38.87 G/DL
  MEAN CORPUSCULAR VOLUME: 59.5 fL
  MONOCYTE: 0.67%
  NEUTROPHIL: 18.67%
  NUCLEATED RED BLOOD CELLS: 0.67 /100WBC
  PLATELET COUNT: 1288.67 x10E3/uL
  ALANINE AMINOTRANSFERASE: 58.33 u/L
  ALBUMIN: 4.07 G/DL
  ALKALINE PHOSPHATASE: 348.67 u/L
  ASPARTATE AMINOTRANSFERASE: 87.67 u/L
  BLOOD UREA NITROGEN: 12.67 mg/dL
  CARBON DIOXIDE: 26 mmol/L
  CHLORIDE: 101 MEQ/L
  CHOLESTEROL: 72.67 mg/dL
  CREATINE PHOSPHOKINASE: 343.33 u/L
  CREATININE: 0.16 mg/dL
  GLUCOSE: 162.67 mg/dL
  LACTATE DEHYDROGENASE: 208 u/L
  LIPASE: 10 u/L
  PHOSPHORUS: 13.27 mg/dL
  POTASSIUM: 7.68 MEQ/L
  SODIUM: 143.37 MEQ/L
  TOTAL BILIRUBIN: 0.2 mg/dL
  TOTAL PROTEIN: 5.6 G/DL
  URIC ACID: 2 mg/dL
120 h, time 5 day
  ABSOLUTE BASOPHIL: 0 CELLS/uL
  ABSOLUTE EOSINOPHIL: 0 CELLS/uL
  ABSOLUTE LYMPHOCYTE: 14620.33 CELLS/uL
  ABSOLUTE MONOCYTE: 0 CELLS/uL
  ABSOLUTE SEGMENTED NEUTROPHIL: 2246.33 CELLS/uL
  BASOPHIL: 0%
  EOSINOPHIL: 0%
  ERYTHROCYTE COUNT: 5.78 x10E6/uL
  HEMATOCRIT: 35.77%
  HEMOGLOBIN: 14.27 G/DL
  LEUKOCYTE COUNT: 16.87 x10E3/uL
  LYMPHOCYTE: 87%
  MEAN CORPUSCULAR HEMOGLOBIN: 24.63 pg
  MEAN CORPUSCULAR HEMOGLOBIN CONCENTRATION: 39.9 G/DL
  MEAN CORPUSCULAR VOLUME: 61.87 fL
  MONOCYTE: 0%
  NEUTROPHIL: 13%
  NUCLEATED RED BLOOD CELLS: 0 /100WBC
  PLATELET COUNT: 1147.67 x10E3/uL
  ALANINE AMINOTRANSFERASE: 54.33 u/L
  ALBUMIN: 4.27 G/DL
  ALKALINE PHOSPHATASE: 454.67 u/L
  ASPARTATE AMINOTRANSFERASE: 86.67 u/L
  BLOOD UREA NITROGEN: 11.67 mg/dL
  CARBON DIOXIDE: 27 mmol/L
  CHLORIDE: 101.33 MEQ/L
  CHOLESTEROL: 63.33 mg/dL
  CREATINE PHOSPHOKINASE: 239.33 u/L
  CREATININE: 0.2 mg/dL
  GLUCOSE: 154 mg/dL
  LACTATE DEHYDROGENASE: 176.67 u/L
  LIPASE: 10 u/L
  PHOSPHORUS: 11.33 mg/dL
  POTASSIUM: 6.56 MEQ/L
  SODIUM: 143.2 MEQ/L
  TOTAL BILIRUBIN: 0.17 mg/dL
  TOTAL PROTEIN: 5.87 G/DL
  URIC ACID: 1.7 mg/dL
